We go through two compounds from patent publication US20220306659A1, “COMPOUND INHIBITING AND INDUCING DEGRADATION OF EGFR AND ALK” (BEIJING TIDE PHARMACEUTICAL CO., LTD., priority 2019, published 2022).

In assay [1] the target is T1, EGFR^L858R/T790M/C797S (Homo sapiens, UniProt P00533, C797S/L858R/T790M). Description: EGFR inhibitory activity assay (TK-substrate-biotin/ATP, 665/615 ratio). It counts as biochemical. The following applies: kinase inhibition. The procedure, abridged: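 HTRF kinase assay: enzyme preincubated with compound 10 min at room temperature, then reacted with biotinylated TK substrate and ATP for 40 min at room temperature.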

In assay [2] the target is Ba/F3(EGFR^L858R/T790M/C797S) cells (Homo sapiens, UniProt P00533, T790M/C797S/L858R, cells depend on it). Description: Assay of activity on Ba/F3 cells (CTG, 72 h). It counts as cell-based. The following applies: read-out: IC50 (nM) Ba/F3 (EGFR^L858R/T790M/C797S). An outline of the steps: (§1)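 Ba/F3 cells dependent on each EGFR triple mutant were exposed to 3-fold compound dilutions for 72 h at 37° C, 5% CO2, with CellTiter-Glo luminescence as the read-out.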

For another assay, the target named is T2, Ba/F3(EML4-ALK) cells (Homo sapiens, UniProt Q9UM73).
T2 construct: fused on or other part: Q9HC35 (Echinoderm microtubule-associated protein-like 4)
T2 sequence (Q9UM73 whole entry, change not shown, the tested form may be a part): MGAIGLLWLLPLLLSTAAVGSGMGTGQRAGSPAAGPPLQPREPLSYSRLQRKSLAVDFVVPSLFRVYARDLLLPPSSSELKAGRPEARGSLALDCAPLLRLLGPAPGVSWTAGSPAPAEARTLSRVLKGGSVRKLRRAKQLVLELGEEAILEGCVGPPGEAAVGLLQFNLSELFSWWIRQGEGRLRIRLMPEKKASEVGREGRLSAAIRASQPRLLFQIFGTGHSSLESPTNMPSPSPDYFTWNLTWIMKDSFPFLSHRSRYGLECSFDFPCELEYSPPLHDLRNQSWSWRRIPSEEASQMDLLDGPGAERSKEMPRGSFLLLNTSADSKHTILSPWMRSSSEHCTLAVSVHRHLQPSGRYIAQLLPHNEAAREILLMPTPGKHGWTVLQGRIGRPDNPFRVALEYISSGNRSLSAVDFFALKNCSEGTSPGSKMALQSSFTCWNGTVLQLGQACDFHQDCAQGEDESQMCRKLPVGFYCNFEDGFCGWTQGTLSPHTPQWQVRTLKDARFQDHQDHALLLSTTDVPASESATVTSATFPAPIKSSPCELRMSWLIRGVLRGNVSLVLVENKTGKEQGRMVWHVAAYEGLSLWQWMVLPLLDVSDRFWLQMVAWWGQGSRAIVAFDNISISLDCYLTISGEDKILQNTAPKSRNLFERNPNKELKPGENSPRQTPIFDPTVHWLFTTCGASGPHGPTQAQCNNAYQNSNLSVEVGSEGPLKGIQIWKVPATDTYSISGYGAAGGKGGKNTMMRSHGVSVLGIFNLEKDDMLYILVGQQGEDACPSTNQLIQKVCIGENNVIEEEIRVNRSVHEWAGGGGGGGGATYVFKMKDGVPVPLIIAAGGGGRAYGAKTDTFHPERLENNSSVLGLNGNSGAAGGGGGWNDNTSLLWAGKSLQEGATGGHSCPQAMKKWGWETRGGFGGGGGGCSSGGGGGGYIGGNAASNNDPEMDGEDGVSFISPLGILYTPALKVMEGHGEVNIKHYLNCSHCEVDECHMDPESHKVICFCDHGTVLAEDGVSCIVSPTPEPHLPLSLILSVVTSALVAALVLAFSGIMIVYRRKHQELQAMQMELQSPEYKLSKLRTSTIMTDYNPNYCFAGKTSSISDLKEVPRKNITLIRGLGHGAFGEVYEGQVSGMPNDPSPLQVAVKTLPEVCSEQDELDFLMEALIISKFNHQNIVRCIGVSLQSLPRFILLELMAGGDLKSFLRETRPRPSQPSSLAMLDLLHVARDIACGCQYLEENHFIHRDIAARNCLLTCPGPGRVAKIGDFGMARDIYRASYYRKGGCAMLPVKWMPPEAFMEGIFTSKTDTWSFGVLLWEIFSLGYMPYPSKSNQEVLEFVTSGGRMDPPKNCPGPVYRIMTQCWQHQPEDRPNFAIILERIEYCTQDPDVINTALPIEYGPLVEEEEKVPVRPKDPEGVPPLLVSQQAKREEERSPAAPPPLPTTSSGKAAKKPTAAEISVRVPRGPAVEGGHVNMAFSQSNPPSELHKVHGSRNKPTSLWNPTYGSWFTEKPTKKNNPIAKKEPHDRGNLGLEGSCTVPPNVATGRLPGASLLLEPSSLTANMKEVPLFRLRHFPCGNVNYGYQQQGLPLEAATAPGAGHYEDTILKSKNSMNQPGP
Description: Assay of activity on Ba/F3(EML4-ALK) cells (CTG, 72 h). It counts as cell-based. Conditions: read-out: IC50 (nM) Ba/F3(EML4-ALK). The procedure, abridged: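 Ba/F3(EML4-ALK) cells, 700 per well, were exposed to 3-fold serial compound dilutions for 72 h at 37° C, 5% CO2, and viability was then read by CTG luminescence.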

Assay [3] addresses T1, EGFR^L858R/T790M/C797S. Description: Assay of activity of compounds to induce EGFR protein degradation (Alpha counts). It counts as cell-based. The following applies: 24 h. Also on record: expressed in transfected cells; host or cells: Ba/F3. From the text:
(§2) Assay of activity of compounds to induce EGFR^58R/IT790M/C797S and EGFR^Dell9/T790M/C797S protein degradation
(§3) In order to further explain the reason why the compounds of the present disclosure have inhibitory activity on Ba/F3(EGFR^58R/IT790M/C797S) and Ba/F3(EGFR^Dell9/T790M/C797S) cells, representative compounds C176 and C213 were selected to study the mechanism of action of the compounds, and observe their effects on EGFR^58R/IT790M/C797S and EGFR^Dell9/T790M/C797S protein levels.
(§4) Ba/F3(EGFR^58R/IT790M/C797S) and Ba/F3(EGFR^Dell9/T790M/C797S) cells were cultured according to the culture conditions recommended by ATCC, and analyzed by index.
(§5) Complete medium: 1640 medium, 10% FBS, 1× glutamine, 1× penicillin-streptomycin.
(§6) Culture conditions: incubated at 37° C., 95% air, 5% CO2 incubator.
(§7) (2) Compound stock solution: 10 mM stock solution in DMSO, stored at −20° C.
(§8) (3) Preparation of cell suspension:
(§9) The cells in the cell culture bottle were collected, and the cells with viability of >90% can be used in the assay. Cells were seeded in a 96-well plate with 40 μL cells, 1*10^5 cells/well.
(§10) Compound was diluted 3× with DMSO, starting at 1.0 mM (for EGFR^58R/IT790M/C797S assay) and 5 mM (for EGFR^Dell9/T790M/C797S assay), respectively, into 10 concentrations to prepare working solutions.
(§11) (5) Compound was pipetted into the 96-well plate to treat cells in a 37° C., 95% air, 5% CO2 incubator for 24 h.
(§12) 1) 1 μg/mL of EGF activated cells were treated for 10 min;
(§13) 2) After the compound treatment, lysis buffer was added to lyse cells; 10 μL of cell lysate was transferred to a 384-well plate; in addition, control lysate and negative control plus 5 μL of acceptor mix were added to the 384-well plate, and shaken on a shaker for 1-2 min;
(§14) 3) 5 μL of donor mix was added to each well; the 384-well plate was sealed, shaken on a shaker for 1-2 min, left in the dark at room temperature overnight, and read with an enzyme labeling instrument.
(§15) Alpha counts were fitted by logarithmic treatment of compound concentration with Graphpad Prism 8.0.
(§16) Y=Bottom+(Top−Bottom)/(1+10^((LogIC50−X)*HillSlope))
(§17) X: logarithm of compound concentration; Y: Alpha Counts.

Assay [4] addresses Ba/F3(EGFR^Del19/T790M/C797S) cells (Homo sapiens, UniProt P00533, DEL746-750/T790M/C797S, cells depend on it). Description: Assay of activity on Ba/F3 cells (CTG, 72 h). It counts as cell-based. The following applies: read-out: IC50 (nM) Ba/F3 (EGFR^Del19/T790M/C797S). An outline of the steps:
as §1

A further assay deals with EGFR^Del19/T790M/C797S (Homo sapiens, UniProt P00533, C797S/DEL746-750/T790M). Description: Assay of activity of compounds to induce EGFR protein degradation (Alpha counts). It counts as cell-based. Also on record: expressed in transfected cells; host or cells: Ba/F3. The following applies: 24 h.
Description: as §2, §3, §4, §5, §6, §7, §8, §9, §10, §11, §12, §13, §14, §15, §16, §17

The IC50 is the concentration at which inhibition is half-maximal. `COc1cc(N2CCC(N3CCN(CCOCC#Cc4cccc5c4CN(C4CCC(=O)NC4=O)C5=O)CC3)CC2)ccc1Nc1ncc(Cl)c(Nc2ccccc2P(C)(C)=O)n1` (stereo not drawn) [Compound C176, 3-(4-(3-(2-(4-(1-(4-((5-chloro-4-((2-(dimethylphosphoryl)phenyl)amino)pyrimidin-2-yl)amino)-3-methoxyphenyl)piperidin-4-yl)piperazin-1-yl)ethoxy)prop-1-yn-1-yl)-1-oxoisoindolin-2-yl)piperidine-2,6-dione]: at EGFR^L858R/T790M/C797S [1], the IC50 was 1 to 100 nM. The GI50 (in assay [2]; at Ba/F3(EML4-ALK) cells) was 1 to 100 nM in each case. In addition, on EGFR^L858R/T790M/C797S [3] (Ba/F3(EGFR^L858R/T790M/C797S) cells, 0.01 nM to 1000 nM, FIG. 1, read-out: DC50 of EGFR^L858R/T790M/C797S protein level), the DC50 worked out at 31.4 nM. Moreover, the “effect on EGFR^L858R/T790M/C797S protein level (in words)” value at EGFR^L858R/T790M/C797S [3] (Ba/F3 cells, dose-dependent) is recorded as “significantly reduces”.
Regarding `COc1cc(N2CCC3(CCN(CCCCCOc4cccc5c4CN(C4CCC(=O)NC4=O)C5=O)CC3)CC2)c(C)cc1Nc1ncc(Br)c(Nc2ccc3nccnc3c2P(C)(C)=O)n1` (stereo not drawn) [Compound C213, 3-(4-((5-(9-(4-((5-bromo-4-((5-(dimethylphosphoryl)quinoxalin-6-yl)amino)pyrimidin-2-yl)amino)-5-methoxy-2-methylphenyl)-3,9-diazaspiro[5.5]undecan-3-yl)pentyl)oxy)-1-oxoisoindolin-2-yl)piperidine-2,6-dione], the GI50 in assay [4] and in assay [2] was 1 to 100 nM in each case. Further, at EGFR^Del19/T790M/C797S (Ba/F3(EGFR^Del19/T790M/C797S) cells, 0.1 nM to 10000 nM, FIG. 2, read-out: DC50 of EGFR^Del19/T790M/C797S protein level), the DC50 was 11.3 nM. Besides, the “effect on EGFR^Del19/T790M/C797S protein level (in words)” value on EGFR^Del19/T790M/C797S (Ba/F3 cells, dose-dependent) is reported as “significantly reduces”.
